Reference: publication PMC8807399, “Synthesis, Characterization, and in vivo Evaluation of a Novel Potent Autotaxin-Inhibitor” (Frontiers in Pharmacology, 2022)
≈ marks a conversion by molar mass, not a printed value.

What was measured:
EAG model rats = test: Experimental autoimmune glaucoma (EAG) model; format: in vivo, rat; conditions: ONA + ATX-i group; for IOP: 20 mg/kg food admix
Procedure: Calculations of the daily doses were based on average food intake of rats used in the studies. […] After mixing, ethanol was removed in vacuo until dryness.
The regular chow diet for the treatment groups was replaced with the same chow diet containing the treatment substance.
For the EAG model, preparation and immunization of the optic nerve antigen (ONA = bovine optic nerve homogenate) was carried out as previously described ([Laspas et al., 2011]; [Joachim et al., 2013]). Rats received an intraperitoneal injection with 8 mg/ml ONA. The antigen was mixed with incomplete Freund’s adjuvant (500 µl) plus 3 µg pertussis toxin (both Sigma Aldrich, St. Louis, MO, United States). The animals of the control group were injected with NaCl in Freund’s adjuvant and pertussis toxin. Rats were sacrificed 28 days after immunization.
Aqueous humor and serum were collected at the end of the EAG study. IgG levels were measured in serum and aqueous humor samples from the EAG study (both: 6-7 samples/group) using a sandwich enzyme-linked immunosorbent assay (ELISA) kit (eBioscience, Frankfurt, Germany) according to the manufacturer’s instructions. In brief, samples of aqueous humor from both groups were prediluted 1,000- or 2,000-fold in assay buffer, serum samples were diluted 100,000- or 200,000-fold in assay buffer. 75 µl of assay buffer were inserted into each sample well. 25 µl of the prediluted sample were added to the appropriate wells. All samples were incubated, and the absorbance was read at 405 nm using a microplate reader (AESKU.Reader with Gen5 ELISA Software, AESKU.DIAGNOSTICS, Wendelsheim, Germany) ([Reinehr et al., 2018]; [Tsai et al., 2018]).
The IOP was measured in both eyes of each animal in the EAG study with a rebound tonometer (Tonolab; iCare, Oy, Finland) 1 week before as well as 1, 2, and 3 weeks after immunization (n = 5–6 animals/group). The tonometer was held horizontally in front of the animal’s eye ([Pease et al., 2006]). 10 measurements per eye were recorded. From these values, the mean value was calculated ([Reinehr et al., 2019a]).
After explantation, eyes and optic nerves were fixed in 4% paraformaldehyde for 60 min (eyes) or 120 min (optic nerves) and then treated with 30% sucrose overnight. Afterwards, the retinas and optic nerves were embedded in NEG-50 Tissue-Tek medium (Thermo Fisher, Waltham, MA, United States). Cryo-cross sections of the eyes (10 µm) or longitudinal sections of the optic nerves (4 µm) were cut on a microtome (Thermo Fisher), mounted on Histobond Superfrost^+ slides (Thermo Fisher) and fixed in ice cold acetone for 10 min.
Longitudinal optic nerve sections (EAG: 5-6 nerves/group, I/R 14 days: 6-7 nerves/group) were stained with H&E and luxol fast blue (LFB). Of each staining, three areas per optic nerve section were documented with a microscope equipped with a CCD camera (Axio Imager M1; Zeiss) as previously described ([Palmhof et al., 2019]). One photo was taken of the proximal part, one of the middle and one of the distal part, right in front of the chiasma.
Cell infiltration in optic nerve sections stained with H&E was evaluated by using a scoring system ranging from 0 to 4 by a masked observer: 0 = no infiltration; 1 = mild cellular infiltration of the optic nerve or optic nerve sheath; 2 = moderate infiltration; 3 = severe infiltration; and 4 = massive infiltration of the optic nerve parenchyma and nodule infiltration ([Shindler et al., 2006]; [Horstmann et al., 2016]; [Renner et al., 2017]). The average score for each optic nerve was used for statistical analysis.
The grade of demyelination was monitored in optic nerve sections stained with LFB. Therefore, staining was scored from 0 to 2 and categorized as follows: 0 = no demyelination; 0.5 = mild demyelination; 1 = moderate demyelination; 1.5 = advanced demyelination; and 2 = severe demyelination up to dissolution of the tissue.

S1P1 [1] = target: T1, S1P1 (Homo sapiens, UniProt P21453); test: Off-target screen S1P1, antagonist mode; format: cell-based; conditions: 10 µM, single point, duplicates
T1 construct: purchased Eurofins CEREP SA
T1 sequence (P21453 whole entry): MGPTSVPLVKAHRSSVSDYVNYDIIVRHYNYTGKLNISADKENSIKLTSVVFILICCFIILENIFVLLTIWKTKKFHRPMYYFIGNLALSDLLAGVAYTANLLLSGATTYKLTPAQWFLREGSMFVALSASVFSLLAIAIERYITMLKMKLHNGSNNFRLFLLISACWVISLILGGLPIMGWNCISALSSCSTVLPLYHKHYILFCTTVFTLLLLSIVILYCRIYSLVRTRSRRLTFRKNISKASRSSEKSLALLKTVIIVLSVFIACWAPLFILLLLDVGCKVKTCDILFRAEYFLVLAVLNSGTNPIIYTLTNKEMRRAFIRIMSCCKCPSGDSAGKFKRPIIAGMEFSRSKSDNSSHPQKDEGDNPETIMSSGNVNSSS

S1P2 = target: T2, S1P2 (Homo sapiens, UniProt O95136); test: Off-target screen S1P2, antagonist mode; format: cell-based; conditions: 10 µM, single point, duplicates
T2 construct: purchased Eurofins CEREP SA
T2 sequence (O95136 whole entry): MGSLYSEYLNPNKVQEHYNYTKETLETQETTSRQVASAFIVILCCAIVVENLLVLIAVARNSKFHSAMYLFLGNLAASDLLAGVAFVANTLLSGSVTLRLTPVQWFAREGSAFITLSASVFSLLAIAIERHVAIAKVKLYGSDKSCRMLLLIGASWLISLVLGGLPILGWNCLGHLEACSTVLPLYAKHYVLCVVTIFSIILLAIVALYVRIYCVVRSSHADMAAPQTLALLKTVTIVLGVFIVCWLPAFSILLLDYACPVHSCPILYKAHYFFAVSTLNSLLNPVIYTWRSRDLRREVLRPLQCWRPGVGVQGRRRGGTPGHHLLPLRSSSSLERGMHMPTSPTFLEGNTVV

GSK-3B = target: T3, GSK-3B (Homo sapiens, UniProt P49841); test: Off-target screen GSK-3B; format: biochemical; conditions: 10 µM; single point, duplicates
T3 construct: purchased Eurofins CEREP SA
T3 sequence (P49841 whole entry): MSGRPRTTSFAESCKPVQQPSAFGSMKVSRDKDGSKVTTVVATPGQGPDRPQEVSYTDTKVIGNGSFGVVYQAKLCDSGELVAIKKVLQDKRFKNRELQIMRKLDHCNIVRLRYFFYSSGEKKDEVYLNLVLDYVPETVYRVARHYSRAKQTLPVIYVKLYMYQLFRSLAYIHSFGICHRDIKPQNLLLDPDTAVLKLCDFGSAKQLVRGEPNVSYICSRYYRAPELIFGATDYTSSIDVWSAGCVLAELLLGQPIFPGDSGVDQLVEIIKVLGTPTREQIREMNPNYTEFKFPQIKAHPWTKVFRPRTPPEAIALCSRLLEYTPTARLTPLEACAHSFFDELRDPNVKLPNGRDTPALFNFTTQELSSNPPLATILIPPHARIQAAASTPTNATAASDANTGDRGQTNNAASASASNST

S1P1 [2] = target: T1, S1P1; test: Off-target screen S1P1, agonist mode; format: cell-based; conditions: 10 µM, single point, duplicates
HDAC6 = target: T4, HDAC6 (Homo sapiens, UniProt Q9UBN7); test: Off-target screen HDAC6; format: biochemical; conditions: 10 µM; single point, duplicates
T4 construct: purchased Eurofins CEREP SA
T4 sequence (Q9UBN7 whole entry): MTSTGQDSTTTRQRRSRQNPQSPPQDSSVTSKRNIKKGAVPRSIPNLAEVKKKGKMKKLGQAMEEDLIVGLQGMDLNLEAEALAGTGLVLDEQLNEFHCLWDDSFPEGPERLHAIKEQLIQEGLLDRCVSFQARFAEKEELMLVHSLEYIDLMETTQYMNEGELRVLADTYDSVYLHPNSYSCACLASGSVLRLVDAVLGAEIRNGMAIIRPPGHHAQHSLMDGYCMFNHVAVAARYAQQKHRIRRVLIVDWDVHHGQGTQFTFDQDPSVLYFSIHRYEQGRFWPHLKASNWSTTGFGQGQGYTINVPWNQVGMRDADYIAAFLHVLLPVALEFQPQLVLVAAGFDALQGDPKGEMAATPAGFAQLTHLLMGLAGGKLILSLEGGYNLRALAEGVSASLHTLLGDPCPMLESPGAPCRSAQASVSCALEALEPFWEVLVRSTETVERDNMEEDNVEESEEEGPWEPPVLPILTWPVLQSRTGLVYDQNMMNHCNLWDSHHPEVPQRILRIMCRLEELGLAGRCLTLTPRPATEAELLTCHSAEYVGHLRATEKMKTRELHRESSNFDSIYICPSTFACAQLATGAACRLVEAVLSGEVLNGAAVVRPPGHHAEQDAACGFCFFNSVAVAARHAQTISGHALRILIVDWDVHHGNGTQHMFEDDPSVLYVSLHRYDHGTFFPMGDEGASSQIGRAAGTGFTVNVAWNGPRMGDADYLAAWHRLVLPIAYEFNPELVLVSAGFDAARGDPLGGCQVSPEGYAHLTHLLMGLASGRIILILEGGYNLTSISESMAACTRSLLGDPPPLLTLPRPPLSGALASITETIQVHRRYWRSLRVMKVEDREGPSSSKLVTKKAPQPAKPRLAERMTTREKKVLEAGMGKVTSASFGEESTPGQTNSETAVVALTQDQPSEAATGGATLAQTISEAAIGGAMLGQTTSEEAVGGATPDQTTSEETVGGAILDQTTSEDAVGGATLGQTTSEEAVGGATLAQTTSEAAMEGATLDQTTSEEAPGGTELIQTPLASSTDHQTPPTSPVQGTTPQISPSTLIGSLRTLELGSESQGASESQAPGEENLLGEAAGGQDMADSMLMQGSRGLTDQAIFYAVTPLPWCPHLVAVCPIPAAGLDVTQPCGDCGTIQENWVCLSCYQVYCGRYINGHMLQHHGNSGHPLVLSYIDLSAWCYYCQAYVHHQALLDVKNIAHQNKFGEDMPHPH

LPA2 receptor = target: T5, LPA2 receptor (Homo sapiens, UniProt Q9HBW0); test: Off-target screen LPA2 receptor, agonist mode; format: cell-based; conditions: 10 µM, single point, duplicates
T5 construct: purchased Eurofins CEREP SA
T5 sequence (Q9HBW0 whole entry): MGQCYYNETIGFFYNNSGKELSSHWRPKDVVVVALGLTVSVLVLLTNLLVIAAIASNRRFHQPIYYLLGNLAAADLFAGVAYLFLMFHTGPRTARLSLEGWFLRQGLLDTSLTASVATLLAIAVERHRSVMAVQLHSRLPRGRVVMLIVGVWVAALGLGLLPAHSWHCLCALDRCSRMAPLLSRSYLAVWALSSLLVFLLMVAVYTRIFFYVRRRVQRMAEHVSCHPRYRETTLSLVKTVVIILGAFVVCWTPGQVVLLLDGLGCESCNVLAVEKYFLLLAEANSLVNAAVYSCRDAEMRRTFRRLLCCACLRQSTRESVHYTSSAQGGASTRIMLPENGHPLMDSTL

[3] = target: Glycine receptor (strychnine insensitive) (Rattus norvegicus, UniProt P35439); test: Off-target screen Glycine receptor (strychnine insensitive); format: binding; conditions: 10 µM; single point, duplicates
Chain of Glycine receptor (strychnine insensitive) (P35439 394-800): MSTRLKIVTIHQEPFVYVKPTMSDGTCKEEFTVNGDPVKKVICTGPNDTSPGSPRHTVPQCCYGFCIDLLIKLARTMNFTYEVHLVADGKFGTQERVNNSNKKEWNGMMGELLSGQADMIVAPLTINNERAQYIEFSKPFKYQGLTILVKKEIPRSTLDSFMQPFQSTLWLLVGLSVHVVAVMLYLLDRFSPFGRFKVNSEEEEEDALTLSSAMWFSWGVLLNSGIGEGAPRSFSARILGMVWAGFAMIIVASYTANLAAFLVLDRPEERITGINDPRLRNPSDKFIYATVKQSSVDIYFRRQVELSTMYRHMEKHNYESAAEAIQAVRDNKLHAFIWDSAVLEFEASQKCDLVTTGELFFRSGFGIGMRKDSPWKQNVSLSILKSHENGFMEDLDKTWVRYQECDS

ZAP70 = target: T6, ZAP70 (Homo sapiens, UniProt P43403); test: Off-target screen ZAP70; format: biochemical; conditions: 10 µM; single point, duplicates
T6 construct: purchased Eurofins CEREP SA
T6 sequence (P43403 whole entry): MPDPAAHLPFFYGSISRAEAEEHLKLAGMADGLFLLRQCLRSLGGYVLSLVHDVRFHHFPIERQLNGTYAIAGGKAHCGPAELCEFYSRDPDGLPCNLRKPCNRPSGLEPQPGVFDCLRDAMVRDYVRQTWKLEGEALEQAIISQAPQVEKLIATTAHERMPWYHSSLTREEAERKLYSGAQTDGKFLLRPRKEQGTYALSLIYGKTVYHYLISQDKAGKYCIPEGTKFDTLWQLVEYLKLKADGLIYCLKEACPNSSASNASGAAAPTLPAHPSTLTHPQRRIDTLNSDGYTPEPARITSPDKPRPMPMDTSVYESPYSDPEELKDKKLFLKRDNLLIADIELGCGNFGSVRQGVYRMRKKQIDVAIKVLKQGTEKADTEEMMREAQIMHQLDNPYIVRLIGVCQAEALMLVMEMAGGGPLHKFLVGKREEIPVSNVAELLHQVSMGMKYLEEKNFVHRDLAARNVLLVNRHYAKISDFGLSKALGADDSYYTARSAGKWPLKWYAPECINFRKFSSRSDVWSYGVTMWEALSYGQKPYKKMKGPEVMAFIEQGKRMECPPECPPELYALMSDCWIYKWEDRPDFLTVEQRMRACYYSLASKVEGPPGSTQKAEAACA

Acetylcholinesterase = target: T7, Acetylcholinesterase (Homo sapiens, UniProt P22303); test: Off-target screen Acetylcholinesterase; format: biochemical; conditions: 10 µM; single point, duplicates
T7 construct: purchased Eurofins CEREP SA
T7 sequence (P22303 32-614): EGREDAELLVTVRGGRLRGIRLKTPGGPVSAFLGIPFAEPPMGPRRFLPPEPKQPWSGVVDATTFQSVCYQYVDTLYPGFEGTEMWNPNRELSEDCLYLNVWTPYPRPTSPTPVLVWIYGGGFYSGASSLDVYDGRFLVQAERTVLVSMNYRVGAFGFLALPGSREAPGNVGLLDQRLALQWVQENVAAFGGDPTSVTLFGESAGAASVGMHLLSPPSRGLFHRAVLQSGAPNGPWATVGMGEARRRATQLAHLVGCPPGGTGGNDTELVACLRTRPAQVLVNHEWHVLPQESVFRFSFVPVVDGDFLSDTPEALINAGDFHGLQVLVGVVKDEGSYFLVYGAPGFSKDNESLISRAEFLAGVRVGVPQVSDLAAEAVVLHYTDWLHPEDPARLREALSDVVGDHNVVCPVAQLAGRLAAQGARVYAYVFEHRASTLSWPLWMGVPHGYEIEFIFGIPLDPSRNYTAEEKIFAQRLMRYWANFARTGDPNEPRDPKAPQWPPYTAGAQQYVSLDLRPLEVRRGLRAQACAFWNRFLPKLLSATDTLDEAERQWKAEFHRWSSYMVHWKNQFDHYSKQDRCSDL

total basal plasma LPA = test: Plasma LPA profile in rat (PK/PD), basal LPA; format: in vivo
Procedure: Plasma samples were collected in triplicates at 0, 1, 3, 6, and 24 h and were added to heparinated tubes and kept at 0°C until further processing. Sampling and immediate processing at 0°C is crucial for the measurements of basal levels, since at higher temperatures, LPA is produced rapidly according to the ATX activity in the sample. One aliquot was used to determine basal levels of LPAs 16:0, 18:0, 18:1, and 20:4 as well as exposure of 13 by LC-MS/MS. A detailed method for LPA analysis is described in the Supplementary Material Section 1.3. The other 2 aliquots were used to determine ATX activity by incubation of the sample at 37°C for 4 h, followed again by analysis of LPA levels in the same way as for the basal LPA levels. LPA profiles were analyzed using MS Excel (Microsoft Corporation).
Therefore, modulation of total basal LPA was largely driven by modulation of LPA 20:4 (Figure 2A).

For `O=C(OCc1ccc(OC(F)(F)F)cc1)N1C[C@@H]2CN(C(=O)c3ccc4[nH]nnc4c3)C[C@H]2C1` [Compound 13, (3aS,6aS)-5-(1H-Benzotriazole-5-carbonyl)-hexahydro-pyrrolo[3,4-c]pyrrole-2-carboxylic acid 4-trifluoromethoxy-benzyl ester], the IOP (EAG model rats; 1 week after immunization, ONA 10.44 ± 0.62, control 11.26 ± 0.54) was 10.54 ± 0.40 mmHg, the IOP (EAG model rats; 1 week before immunization, ONA 10.34 ± 0.67, control 10.36 ± 1.03) was 10.91 ± 0.50 mmHg and the IOP (EAG model rats; 2 weeks after immunization, ONA 10.74 ± 0.55, control 11.36 ± 0.52) was 10.85 ± 0.42 mmHg. For the same compound, the IOP (EAG model rats; 3 weeks after immunization, ONA 10.77 ± 0.77, control 11.47 ± 0.62) was 10.69 ± 0.60 mmHg, the “ED1+ and Iba1+ active microglia, optic nerve” value (EAG model rats; 28 days, ONA 0.27 ± 0.24, control 0.06 ± 0.11) was 0.22 ± 0.10 cells/image and the “Iba1+ microglia, optic nerve” value (EAG model rats; 28 days, ONA 3.14 ± 0.94, control 1.28 ± 0.15) was 2.96 ± 0.92 cells/image. For the same compound, the “ED1+ and Iba1+ microglia, retina” value (EAG model rats; 28 days, ONA 7.70 ± 6.27, control 1.52 ± 1.28) was 5.08 ± 1.86 cells/mm, the “GFAP area, retina” value (EAG model rats; 28 days, ONA 13.55 ± 3.42, control 9.72 ± 0.84) was 10.30 ± 2.29 area [%]/section and the “Iba1+ microglia cell count, retina” value (EAG model rats; 28 days, ONA 22.06 ± 7.81, control 13.67 ± 3.04) was 19.76 ± 2.82 cells/mm. For the same compound, the “Brn-3a+ RGC number, retina” value (EAG model rats; 28 days, ONA 29.47 ± 6.20, control 58.11 ± 4.22, p = 0.032 vs ONA) was 38.59 ± 4.33 cells/mm, the “Optic nerve LFB score” value (EAG model rats; 28 days, score 0-2, ONA 0.58 ± 0.20, control 0.31 ± 0.13) was 0.77 ± 0.66 and the “GFAP score, optic nerve” value (EAG model rats; 28 days, score 0-2, ONA 0.81 ± 0.17, control 0.71 ± 0.26) was 1.00 ± 0.29. For the same compound, the “Optic nerve SMI-32 score” value (EAG model rats; 28 days, score 0-2, ONA 0.91 ± 0.08, control 0.58 ± 0.14) was 0.75 ± 0.19, the “Optic nerve H&E score” value (EAG model rats; 28 days, score 0-4, ONA 1.22 ± 0.43, control 0.80 ± 0.51) was 1.27 ± 0.86 and the “Serum IgG level” value (EAG model rats; end of EAG study, ONA 15.78 ± 5.00, control 8.31 ± 5.76) was 12.30 ± 2.70 mg/mL. For the same compound, the “Aqueous humor IgG level” value (EAG model rats; end of EAG study, ONA 272.24 ± 98.17, control 62.31 ± 19.91, p = 0.025 vs ONA) was 167.26 ± 34.50 µg/mL, the “S1P1 (h), antago. mode [% inhib]” value (S1P1 [1]) was 8 % inhib and the “S1P2 (h), antago. mode [% inhib]” value (S1P2) was 45 % inhib. For the same compound, the “GSK-3B (h) [% inhib]” value (GSK-3B) was -8 % inhib, the “S1P1 (h), agonist mode [% pos ctrl]” value (S1P1 [2]) was 5 % pos ctrl and the “HDAC6 (h) [% inhib]” value (HDAC6) was -14 % inhib. The “LPA2 receptor (h), agonist mode [% pos ctrl]” value (LPA2 receptor) was 8 % pos ctrl, the “Glycine receptor (strychnine insensitive) (r) [% inhib]” value [3] was 17 % inhib and the “ZAP70 (h) [% inhib]” value (ZAP70) was 9 % inhib. The “Acetylcholinesterase (h) [% inhib]” value (Acetylcholinesterase) was -23 % inhib, the IC50 (total basal plasma LPA; Rattus norvegicus, free plasma concentration, male Wistar rats, 3, 10, 30 mg/kg po, sum of LPA 16:0, 18:0, 18:1, 20:4, read-out: IC50 for the lowering of total basal LPA) was roughly 3.2 ng/mL (≈ 6.73 nM) and the “Estimated average ATX inhibition” value (total basal plasma LPA; rat, food admix 20 mg/kg, 2-weeks study at steady state, estimated from PK/PD relationship) was greater than 75%.
